Legend:
Assay type in all cases: cell-based
mouse UT-B = biological target: T1, mouse UT-B (Mus musculus, UniProt Q8VHL0); assay: Stopped-flow light scattering, N-methylurea transport in mouse RBCs
T1 construct: the indicator cells are red blood cells that endogenously express the UT-B urea transporter; endogenous in cells; host or cells: red blood cells of wild-type CD1 mice
T1 sequence (Q8VHL0 1-384): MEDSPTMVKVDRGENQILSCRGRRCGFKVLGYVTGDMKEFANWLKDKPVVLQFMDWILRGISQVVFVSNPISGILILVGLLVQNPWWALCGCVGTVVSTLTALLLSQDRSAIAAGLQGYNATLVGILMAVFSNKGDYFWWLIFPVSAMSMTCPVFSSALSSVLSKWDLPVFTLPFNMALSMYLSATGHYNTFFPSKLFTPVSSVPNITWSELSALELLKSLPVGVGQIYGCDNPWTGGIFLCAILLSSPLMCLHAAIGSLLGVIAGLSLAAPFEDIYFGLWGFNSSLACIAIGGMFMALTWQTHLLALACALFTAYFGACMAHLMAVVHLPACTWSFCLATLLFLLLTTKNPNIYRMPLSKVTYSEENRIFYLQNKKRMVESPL
Method: As a positive control, 0.7 mM phloretin was added to the RBC suspension prior to stopped-flow experiments. Measurements of water permeability were carried out similarly, with sucrose (cell-impermeant) used instead of urea to establish a 250-mM osmotic gradient. As a positive control, HgCl2 (0.3 mM) was added to the RBC suspension prior to stopped-flow measurements. Osmotic water permeability coefficients (Pf) were computed from light scattering data as described (van Hoek et al., J Biol Chem. 267:18267-69 (1992)).
For stopped-flow experiments, a 100-mM gradient of urea (for human RBCs) or N-methylurea (for mouse RBCs) was used to minimize competition effects (apparent urea and N-methylurea affinities at 23° C. are approximately 200 and approximately 100 mM, respectively) (Mayrand et al., J Gen Physiol. 81:221-37 (1983)). N-methylurea, with greater than 2-fold slower RBC permeability than urea, was used in mouse studies to better resolve overlapping water and urea transport kinetics. Dose-response data were also collected for human RBCs using a high concentration of 1 M urea to distinguish between competitive vs. non-competitive inhibitor binding.
For these studies using mouse RBCs, methylurea was used as the transported solute instead of urea because its transport is slower, allowing better estimation of EC50 values.

UT-B [1] = biological target: T2, UT-B (Homo sapiens, UniProt Q13336); assay: Stopped-flow light scattering, urea transport in human RBCs; conditions: for inhibition of urea transport, inhibitor added externally only (sidedness): inhibitor only in urea-containing solution at time of stopped-flow; for reversibility of inhibition after washing of RBCs: 10 min pre-incubation (0.1 μM ureainh-101, 0.4 μM ureainh-302), then washout
T2 construct: a red blood cell (i.e., erythrocyte), which endogenously expresses the urea transporter UT-B; endogenous in cells; host or cells: human red blood cells (whole venous blood, single donor)
T2 sequence (Q13336 1-389): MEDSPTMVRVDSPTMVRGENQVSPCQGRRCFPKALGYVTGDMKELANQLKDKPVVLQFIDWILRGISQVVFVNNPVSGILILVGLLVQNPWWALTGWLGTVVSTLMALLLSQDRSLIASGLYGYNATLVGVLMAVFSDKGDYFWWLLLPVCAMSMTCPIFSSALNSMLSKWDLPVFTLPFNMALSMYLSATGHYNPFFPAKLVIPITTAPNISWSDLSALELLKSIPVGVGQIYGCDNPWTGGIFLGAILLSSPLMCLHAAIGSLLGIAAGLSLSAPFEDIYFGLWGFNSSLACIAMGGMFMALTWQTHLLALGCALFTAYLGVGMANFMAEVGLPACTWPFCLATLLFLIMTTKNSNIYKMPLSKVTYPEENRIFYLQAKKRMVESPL
Method: RBC urea and water permeabilities were assayed by stopped-flow light scattering using a Hi-Tech Sf-51 instrument (Wiltshire, UK). […] After an initial osmotic shrinking phase, the kinetics of increasing cell volume caused by urea influx were measured as the time-course of 90° scattered light intensity at 530 nm, with increasing cell volume resulting in reduced scattered light intensity. As a positive control, 0.7 mM phloretin was added to the RBC suspension prior to stopped-flow experiments. Measurements of water permeability were carried out similarly, with sucrose (cell-impermeant) used instead of urea to establish a 250-mM osmotic gradient. As a positive control, HgCl2 (0.3 mM) was added to the RBC suspension prior to stopped-flow measurements. Osmotic water permeability coefficients (Pf) were computed from light scattering data as described (van Hoek et al., J Biol Chem. 267:18267-69 (1992)).
After repeating the 96-well plate RBC lysis assay to confirm compound activity (see Example 2), bona fide urea transport inhibition was determined by stopped-flow light scattering from the kinetics of urea influx (RBC swelling) in response to an inwardly directed urea gradient. Rapid mixing of an RBC suspension with a hyperosmolar solution containing excess 250 mM urea produced rapid cell shrinking due to osmotic water efflux, followed by cell swelling as urea (and water) influx occurred.
To determine EC50 values for urea transport inhibition directly, RBC urea transport was measured by stopped-flow light scattering using a non-saturating concentration of extracellular urea (to avoid possible competition effects). EC50 for inhibition of RBC urea transport was determined independently by comparing stopped-flow light scattering curves to a model of cell shrinking-swelling. […]
The two coupled differential equations describing water efflux and solute influx in response to externally added urea or methylurea were numerically integrated using the forward Euler method (Δt=0.01 s) to reproduce the biphasic changes in cell volume observed experimentally. […] For each time step, a new cell volume (normalized to the initial size; V(i+1)/V(0)) and a new cell permeant concentration (U(i+1)) were calculated from V(i+1)/V(0)=V(i)/V(0)−Δt·Pf·(S/V(0))·vw·[Ie(1−V(i)/V(0))+(Ue−Uc(i))] and Uc(i+1)=Uc(i)/V(0)−Δt·Us·(S/V(0))·vw·(Ue−Uc(i)). […] The product of Pf and the surface area-to-volume ratio (S/V(0)) was determined to be 3.4×10^2 s^−1 and 8.5×10^2 s^−1 for human and mouse erythrocytes, respectively, from water permeability measurements. […]

UT-B [2] = biological target: T2, UT-B; assay: RBC lysis assay, human RBCs; conditions: lysis assay, FIG. 5B, read-out: apparent EC50
Source text: Vigorous mixing was achieved by repeated pipetting.

| SMILES | inhibitory potency against mouse UT-B (mouse UT-B) | inhibition of urea transport, inhibitor added externally only (sidedness) (UT-B [1]; 0.1 μM) | reversibility of inhibition after washing of RBCs (UT-B [1]) | EC50 (UT-B [2]) [nM] | inhibition of urea transport, inhibitor added externally only (sidedness) (UT-B [1]; 0.2 μM) |
| --- | --- | --- | --- | --- | --- |
| NC(=O)CSc1oc(-c2ccccc2)nc1S(=O)(=O)c1ccc(Br)cc1 [ureainh-101] | good inhibitory potencies | did not inhibit urea transport | fully reversible inhibition | 30 |  |
| Cc1ccc(Nc2nnc(-c3ccc(C(N)=O)cc3)c3ccccc23)cc1 [ureainh-302] | good inhibitory potencies |  | fully reversible inhibition | 100 | had a sizable effect |
